Two molecules from US11266686B2, “Metal complexes and methods of treatment” (PROCYPRA THERAPEUTICS LLC, priority 2013, dated 2022) can be followed below.

The data set can be described thus: Pharmacokinetics in mice after oral administration, plasma and brain by LC/MS/MS. As to conditions: 30 mg/kg CuXTSM API oral; for Brain AUC0-24h / Brain AUC0-inf / Brain Cmax / Brain Tmax / Brain t½ (number of time points): mouse brain; for Brain t½ (number of time points) / Plasma t½ (number of time points): bracket = number of time points; for Plasma Ke / Plasma MRT / Plasma AUC0-24h / Plasma AUC0-inf / Plasma Cmax / Plasma Tmax / Plasma t½ (number of time points): mouse plasma; for Plasma AUC0-24h / Plasma AUC0-inf / Plasma Cmax / Plasma Tmax: CuATSM in SSV, NCDs in water. The protocol: CuATSM was suspended in “Standard Suspension Vehicle” (SSV), consisting of 0.9% (w/v) NaCl, 0.5% (w/v) sodium carboxymethylcellulose, 0.5% (v/v) benzyl alcohol, and 0.4% (v/v) Tween 80 in deionized water. All other test compounds were suspended in sterile water. Samples were prepared by adding one of the compounds to the liquid vehicle (water or SSV) in a vial and then vortexing the mixture for 3 min with a stir bar inside. If the powdered sample was not completely wetted or not completely suspended, the sample was vortexed for another minute. If wetting was still incomplete, the vial was sonicated until a fully wetted suspension was obtained. Between doses, the sample was stirred on medium speed and then vortexed for an additional 20 s immediately before the next dose was removed from the vial. All dosing was completed from a single preparation of the suspension within 60 min of adding the compound to water or SSV.
Mice were deprived of pelleted food overnight, during which time 10% dextrose, as Dextroput, was provided in tap water, after which the test items were administrated orally by gavage in water or SSV. […] The blood samples were kept on ice after sampling and centrifuged at +4° C., 1800×g for 5 min to prepare plasma. Plasma samples were extracted and transferred into pre-labelled Eppendorf test tubes (50 μl exact in one vial, and the remaining in a second vial) and frozen at −20° C. The samples were transported on dry ice to the analysis site. Following blood sampling, mice were euthanized by cervical dislocation, and then brains were collected through opened skulls. The brains were weighed and placed in test tubes and placed on water ice. Phosphate-buffered saline (PBS, pH 7.4), 4 ml per 1 g of brain tissue, was added to the test tube and brains were homogenized by using Ultra-Turrax T25 homogenizer/S25N-10G (Setting 2, 9500 rpm, approximately 10 s). The homogenate was frozen at −20° C. immediately after homogenization. The samples were transported on dry ice to the analysis site.
Dosed mice were studied in triplicate for each of the seven time points, totaling 21 mice dosed for each studied compound. Plasma samples and brain homogenates from four untreated animals were also obtained. The plasma samples were thawed at room temperature (RT), mixed with 2-fold volume of acetonitrile, shaken and centrifuged for 10 min at 13 000×g (Heraeus Pico 17 centrifuge), after which supernatants were transferred into glass vials. The brain homogenate samples were mixed with 2-fold volume of acetonitrile:methanol, shaken, ultrasonicated for 20 min, and centrifuged for 10 min at 13 000×g (Heraeus Pico 17 centrifuge), after which supernatants were transferred into glass vials. […] Quality control (QC) samples were prepared for concentrations 10, 100 and 1000 ng/ml in plasma or brain homogenates.
Elution was with gradient of 0.5% formic acid/acetonitrile (99:1) increased step-wise to (5:95).
The pharmacokinetic parameters for study compounds in plasma and brain were calculated using standard non-compartmental methods. The elimination phase half-life (t½) was calculated by least-squares regression analysis of the terminal linear part of the log concentration-time curve. […] The maximum concentration (Cmax) and the time to Cmax (Tmax) were derived directly from the concentration data. Mean Residence Time, MRT, and elimination rate constant, Ke, were also calculated from the concentration vs. time data of plasma samples.

Consider `CNC1=NN=C(C)C(C)=NN=C(NC)[S][Cu][S]1.O=C(O)CC(O)(CC(=O)O)C(=O)O` [CuATSM:citric acid (1:1)], for which the “Brain AUC0-24h” value was 15435 ng·min/g, the “Brain AUC0-inf” value was 15563 ng·min/g, the “Brain Cmax” value was 77.0 ng/g and the “Brain Tmax” value was 1 h. Also, the “Brain t½ (number of time points)” value is 218 (4) min, the “Plasma Ke” value was found to be 0.0034 min⁻¹, the “Plasma MRT” value is 5.25 h and the “Plasma AUC0-24h” value is 8292 ng·min/mL. Also, the “Plasma AUC0-inf” value worked out at 8366 ng·min/mL, the “Plasma Cmax” value was 14.5 ng/mL, the “Plasma Tmax” value turned out to be 1 h and the “Plasma t½ (number of time points)” value is listed as 204 (3) min.

With `CNC1=NN=CC(C)=NN=C(NC)[S][Cu][S]1.O=C1NS(=O)(=O)c2ccccc21.O=C1NS(=O)(=O)c2ccccc21` [CuPTSM:saccharin (1:2)], the “Brain AUC0-24h” value was 62832 ng·min/g, the “Brain AUC0-inf” value was determined as 72025 ng·min/g, the “Brain Cmax” value stood at 189 ng/g and the “Brain Tmax” value is 0.5 h. Moreover, the “Brain t½ (number of time points)” value is on record as 487 (2) min, the “Plasma Ke” value stood at 0.0016 min⁻¹, the “Plasma MRT” value is 7.9 h and the “Plasma AUC0-24h” value came to 60004 ng·min/mL. Moreover, the “Plasma AUC0-inf” value is 68278 ng·min/mL, the “Plasma Cmax” value is 91.5 ng/mL, the “Plasma Tmax” value was 1 h and the “Plasma t½ (number of time points)” value was 439 (2) min. Also, the “Brain:plasma-ratio (Cmax-based)” value (mouse) was 2.1.
